Measured values reported in ChEMBL document CHEMBL1157334, “Neuroprotective diterpenes from the fruiting body of Antrodia camphorata” (2006).

Tests used:
[1] = Neuroprotective effect against amyloid beta(25 to 35)-induced cell death in Harlan Sprague-Dawley rat pups cortical neurons assessed as cell death at 20 uM treated 2 hrs before amyloid beta(25 to 35) treatment after 40 hrs by MTT assay; details: for cell death at 20 µM: Rattus norvegicus, Harlan Sprague-Dawley, Cortical neurone
[2] = Neuroprotective effect against amyloid beta(25 to 35)-induced cell death in Harlan Sprague-Dawley rat pups cortical neurons assessed as cell death at 10 uM treated 2 hrs before amyloid beta(25 to 35) treatment after 40 hrs by MTT assay

Compound	cell death at 20 µM [1] [%]	cell death [1] [%]	cell death [2] [%]
C=C1CC[C@@H]2[C@](C)(CO)[C@H](O)CC[C@@]2(C)[C@@H]1/C=C/C1=CCOC1=O	29.5		
CC(=O)N[C@@H](CC(=O)O)C(=O)N[C@@H](CCC(=O)O)C(=O)N[C@H](C(=O)N[C@H](C=O)CC(=O)O)C(C)C	23.1		
C=C1CC[C@H]2[C@@](C)(CO)CCC[C@]2(C)[C@H]1CCC1CCOC1=O (some centres not stated)	30.8		
C=C1CC[C@H]2[C@@](C)(CO)CCC[C@]2(C)[C@H]1CCC1=CCOC1=O	32.6		
C=C1CC[C@@H]2[C@](C)(CC[C@H](O)[C@]2(C)CO)[C@H]1/C=C/C1CCOC1=O (stereo in doubt; 2)		26.3	29.5
C=C1CC[C@@H]2[C@](C)(CC[C@H](O)[C@]2(C)CO)[C@H]1/C=C/C1CCOC1=O (stereo in doubt; 3)	29.3		
